The values that follow come from patent publication US20160052923A1, “PIPERAZINE AND HOMOPIPERAZINE DERIVATIVES AS HIV […]” (priority 2013, published 2016).

Each structure is given as a SMILES string. Read-outs that look alike come from different tables or passages of the source.

The subject of this assay is HIV-1 LAI envelope single-round infectious reporter virus. Description: Single-round infectious HIV-1 LAI luciferase reporter virus infection of MT2 cells. Format: cell-based. To be noted: Human immunodeficiency virus 1, MT2, 72 h. From the text:
• Virus production—Human embryonic Kidney cell line, 293T (HEK 293T), was propagated in Dulbecco's Modified Eagle Medium (Invitrogen, Carlsbad, Calif.) containing 10% fetal bovine serum (FBS, Sigma, St. Louis, Mo.). The human T-cell leukemia cell MT2 (AIDS Research and Reference Reagent Program, Cat. 237) was propagated in RPMI 1640 (Invitrogen, Carlsbad, Calif.) containing 10% fetal bovine serum (FBS, Hyclone, Logan, Utah) • Virus infection—Single-round infectious reporter virus was produced by co-transfecting HEK 293T cells with plasmide expressing the HIV-1 LAI envelope along with a plasmid containing an HIV-1 LAI proviral cDNA with the envelope gene replaced by a firefly luciferase reporter gene (Chen et al., Ref. 41). Transfections were performed using lipofectAMINE PLUS reagent as described by the manufacturer (Invitrogen, Carlsbad, Calif.).
• 1. MT2 cells were plated in black, 384 well plates at a cell density of 5×10^3 cells per well in 25 μl RPMI 1640 containing 10% FBS. • 2. Compound (diluted in dimethylsulfoxide and growth medium) was added to cells at 12.5 μl/well, so that the final assay concentration would be ≦50 nM. • 3. 12.5 μl of single-round infectious reporter virus in Dulbecco's Modified Eagle Medium was added to the plated cells and compound at an approximate multiplicity of infection (MOI) of 0.01, resulting in a final volume of 50 μl per well. • 4. Virus-infected cells were incubated at 37 degrees Celsius in a CO2 incubator and harvested 72 h after infection. • 5. Viral infection was monitored by measuring luciferase expression in the infected cells using a luciferase reporter gene assay kit (Steady-Glo, Promega, Madison, Wis.) as described by the manufacturer. Luciferase activity was then quantified by measuring luminescence using an EnVision Multilabel Plate Readers (PerkinElmer, Waltham, Mass.). • 6. The percent inhibition for each compound was calculated by quantifying the level of luciferase expression in cells infected in the presence of each compound as a percentage of that observed for cells infected in the absence of compound and subtracting such a determined value from 100. • 7. An EC50 provides a method for comparing the antiviral potency of the compounds of the invention. The effective concentration for fifty percent inhibition (EC50) was calculated with the Microsoft Excel Xlfit curve fitting software. For each compound, curves were generated from percent inhibition calculated at 10 different concentrations by using a four parameter logistic model (model 205). Table 1 is the key for the data in Table 2.

The mark [1] stands for this setting: read-out: EC50 Group from Table 1.

Compound `COc1cnc(-n2cnc(C)n2)c2[nH]cc(C(=O)C(=O)N3CCN(C4=NCCc5ccccc54)CC3)c12` [Compound 1001] returned an EC50 of 0.00085 µM. Moreover, the concentration for a half-maximal effect (EC50) under setting [1] is < 0.5 µM.
As to `COc1cnc(-n2cnc(C)n2)c2[nH]cc(C(=O)C(=O)N3CCN(C4(c5ccccc5)CC4)CC3)c12` [Compound 1002], the concentration for a half-maximal effect (EC50) under setting [1] was > 0.5 µM.
Regarding `COc1cnc(-n2cnc(C)n2)c2[nH]cc(C(=O)C(=O)N3CCN(C4(c5ccccn5)CC4)CC3)c12` [Compound 1003], the EC50 under setting [1] is > 0.5 µM.
In the case of `COc1cnc(-n2cnc(C(N)=O)n2)c2[nH]cc(C(=O)C(=O)N3CCN(c4nc5ccccn5n4)CC3)c12` [Compound 1004], the EC50 under setting [1] is < 0.5 µM.
With `CC(c1ccccc1)N1CCN(C(=O)C(=O)c2c[nH]c3c(-n4ccnn4)ncc(F)c23)CC1` (stereo not shown) [Compound 1005], the EC50 under setting [1] was < 0.5 µM.
Same read-out and setting: with `O=C(C(=O)N1CCN(Cc2ccccn2)CC1)c1c[nH]c2c(-n3ccnn3)ncc(F)c12` [Compound 1006] the figure was < 0.5 µM; with `O=C(C(=O)N1CCCN(Cc2ccccc2)CC1)c1c[nH]c2c(-n3ccnn3)ncc(F)c12` [Compound 1007], < 0.5 µM.
On to `O=C(C(=O)N1CCCN(c2ccccn2)CC1)c1c[nH]c2c(-n3ccnn3)ncc(F)c12` [Compound 1008], for which the midpoint of the response, the EC50, lay at 0.0894 µM. Moreover, the concentration giving a half-maximal response (EC50) under setting [1] is < 0.5 µM.
Consider `O=C(C(=O)N1CCCN(c2nnnn2-c2ccccc2)CC1)c1c[nH]c2c(-n3ccnn3)ncc(F)c12` [Compound 1009], for which, under setting [1], the EC50 is < 0.5 µM.
Take `COc1cnc(-n2cnc(C)n2)c2[nH]cc(C(=O)C(=O)N3CCN(c4ccccc4-c4nc5ccccc5s4)CC3)c12` [Compound 1010]: the half-maximal effective concentration (EC50) under setting [1] was < 0.5 µM.
Regarding `O=C(C(=O)N1CCN(c2cccc3ccccc23)CC1)c1c[nH]c2c(-n3ccnn3)ncc(F)c12` [Compound 2001], the half-maximal effective concentration (EC50) turned out to be 0.00297 µM. The concentration for a half-maximal effect (EC50) under setting [1] was < 0.5 µM.
In the case of `COc1cnc(-n2cnc(C)n2)c2[nH]cc(C(=O)C(=O)N3CCN(c4nccc5cccnc45)CC3)c12` [Compound 2002], the 50% effective concentration (EC50) under setting [1] was < 0.5 µM.
In the case of `COc1cnc(-n2cnc(C)n2)c2[nH]cc(C(=O)C(=O)N3CCN(c4cccc5ccncc45)CC3)c12` [Compound 2003], under setting [1], the concentration giving a half-maximal response (EC50) was < 0.5 µM.
For the compound `O=C(C(=O)N1CCN(c2cccc3cccnc23)CC1)c1c[nH]c2c(-n3ccnn3)ncc(F)c12` [Compound 2004], the concentration for a half-maximal effect (EC50) under setting [1] was < 0.5 µM.
Turning to `COc1cnc(-n2cnc(C)n2)c2[nH]cc(C(=O)C(=O)N3CCN(c4cccc5cccnc45)CC3)c12` [Compound 2005], the EC50 under setting [1] is < 0.5 µM.
As to `COc1cnc(-n2cnc(C)n2)c2[nH]cc(C(=O)C(=O)N3CCN(c4ncnc5ncccc45)CC3)c12` [Compound 2006], under setting [1], the EC50 is < 0.5 µM.
`COc1cnc(-n2ccnn2)c2[nH]cc(C(=O)C(=O)N3CCN(c4ncnc5ncccc45)CC3)c12` [Compound 2007]: the EC50 under setting [1] was < 0.5 µM.
Turning to `O=C(C(=O)N1CCN(c2ncnc3ncccc23)CC1)c1c[nH]c2c(-n3ccnn3)ncc(F)c12` [Compound 2008], the EC50 is 0.00124 µM. Moreover, the EC50 under setting [1] was < 0.5 µM.
